# Measurements as given in patent publication US20200017496A1 (priority 2017, published 2020).
# Read-outs that look alike come from different tables or passages of the source.
# Tests used:
# [1] = test system: Klebsiella pneumoniae (KPN) isolates; assay: MIC of compounds alone and combined with antibacterials, broth microdilution (CLSI); format: cell-based; details: Klebsiella pneumoniae, read-out: MIC
# Procedure, shortened: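 Inoculum 5·10^5 CFU/mL (final), log phase, ca-MHB; 16-20 h, 35° C, ambient air. MIC = lowest conc. with no visible growth; ATB MIC read at each compound level.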
# [2] = in vivo; parameters: species or system Swiss Mouse; details: male, Swiss, mouse, in vivo, 10 mg/kg
# Description: Water and food were available ad libitum throughout the study. Mouse were handled in accordance with the institutional and national guidelines for the care and use of laboratory animals. […] Drugs were administered by oral gavage using feeding needle. […] Plasma samples were stored at -80° C. until bioanalysis. […] Plasma samples bioanalysis and data analysis The plasma samples (20 μl) were thawed at 0° C. […] Standard samples were prepared by spiking the blank plasma into concentrations 10-5 000 ng/ml and otherwise treated as the samples. […] Mass spectrometric detection involved electrospray ionization in the negative mode followed by multiple reaction monitoring of the drugs and internal standard transitions. Actual drug concentrations were deduced from interpolation of the standard curve. The pharmacokinetic parameters were calculated using XLfit (IDBS) and Excel (Microsoft) software, using standard non-compartmental methods. The intraduodenal bioavailability was calculated by dividing the AUC obtained from the intraduodenal administration by the AUC obtained from the intravenous administration.
compound,measurement,setting,value
"C=CC1=C(C(=O)O)N2C(=O)[C@@H](NC(=O)/C(=N\OCC(=O)O)c3csc(N)n3)[C@H]2SC1 [FIX, Cefixime]",MIC,"[1]; strain KPN UFR24 (TEM-1, SHV-2, SHV-11, OXA-1, OXA-48, OXA-47), CLA @ 4 μg/ml+ ATB",64 µg/mL
same,MIC,"[1]; strain KPN UFR25 (TEM-1, SHV-11, CTX-M-15, OXA-162), ATB alone",> 128 µg/mL
same,MIC,"[1]; strain KPN UFR25 (TEM-1, SHV-11, CTX-M-15, OXA-162), CLA @ 4 μg/ml+ ATB",64 µg/mL
same,MIC,"[1]; strain KPN UFR27 (TEM-1, SHV-28, CTX-M-15, OXA-204), ATB alone",> 128 µg/mL
same,MIC,"[1]; strain KPN UFR27 (TEM-1, SHV-28, CTX-M-15, OXA-204), CLA @ 4 μg/ml+ ATB",> 128 µg/mL
same,MIC,"[1]; strain KPN UFR28 (TEM-1, SHV-1, CTX-M-15, OXA-1, OXA-232), ATB alone",256 µg/mL
same,MIC,"[1]; strain KPN UFR28 (TEM-1, SHV-1, CTX-M-15, OXA-1, OXA-232), CLA @ 4 μg/ml+ ATB",64 µg/mL
same,MIC,"[1]; strain KPN UFR65 (TEM-1, SHV-11, KPC-2), ATB alone",> 128 µg/mL
same,MIC,"[1]; strain KPN UFR65 (TEM-1, SHV-11, KPC-2), CLA @ 4 μg/ml+ ATB",128 µg/mL
same,MIC,"[1]; strain KPN UFR66 (TEM-1, SHV-11, CTX-M-15, KPC-2), ATB alone",512 µg/mL
same,MIC,"[1]; strain KPN UFR66 (TEM-1, SHV-11, CTX-M-15, KPC-2), CLA @ 4 μg/ml+ ATB",64 µg/mL
same,MIC,"[1]; strain KPN UFR67 (TEM-1, SHV-11, KPC-3), ATB alone",> 128 µg/mL
same,MIC,"[1]; strain KPN UFR67 (TEM-1, SHV-11, KPC-3), CLA @ 4 μg/ml+ ATB",128 µg/mL
same,MIC,"[1]; strain KPN UFR68 (TEM-1, SHV-11, CTX-M-15, KPC-3), ATB alone",> 128 µg/mL
same,MIC,"[1]; strain KPN UFR68 (TEM-1, SHV-11, CTX-M-15, KPC-3), CLA @ 4 μg/ml+ ATB",64 µg/mL
same,MIC,"[1]; strain KPN UFR76 (TEM-155, SHV-11, ACT-1, OXA-2), ATB alone",> 128 µg/mL
same,MIC,"[1]; strain KPN UFR76 (TEM-155, SHV-11, ACT-1, OXA-2), CLA @ 4 μg/ml+ ATB",> 128 µg/mL
same,MIC,"[1]; strain KPN UFR77 (CMY-2), ATB alone",128 µg/mL
same,MIC,"[1]; strain KPN UFR77 (CMY-2), CLA @ 4 μg/ml+ ATB",128 µg/mL
same,MIC,"[1]; strain KPN UFR78 (TEM-1, SHV-1, CTX-M-15, CMY-2, OXA-1, OXA-48), ATB alone",> 128 µg/mL
same,MIC,"[1]; strain KPN UFR78 (TEM-1, SHV-1, CTX-M-15, CMY-2, OXA-1, OXA-48), CLA @ 4 μg/ml+ ATB",> 128 µg/mL
same,MIC,"[1]; strain KPN UFR79 (DHA-1, OXA-1), ATB alone",> 128 µg/mL
same,MIC,"[1]; strain KPN UFR79 (DHA-1, OXA-1), CLA @ 4 μg/ml+ ATB",> 128 µg/mL
same,MIC,"[1]; strain KPN UFR80 (SHV-11, DHA-1, OXA-1), ATB alone",≤ 0.25 µg/mL
same,MIC,"[1]; strain KPN UFR80 (SHV-11, DHA-1, OXA-1), CLA @ 4 μg/ml+ ATB",0.5 µg/mL
same,MIC,"[1]; strain KPN UFR81 (TEM-1, SHV-1, DHA-1, OXA-48), ATB alone",> 128 µg/mL
same,MIC,"[1]; strain KPN UFR81 (TEM-1, SHV-1, DHA-1, OXA-48), CLA @ 4 μg/ml+ ATB",> 128 µg/mL
same,MIC,"[1]; strain KPN UFR215 (SHV-27, CTX-M-15), ATB alone",> 128 µg/mL
same,MIC,"[1]; strain KPN UFR215 (SHV-27, CTX-M-15), CLA @ 4 μg/ml+ ATB",1 µg/mL
same,MIC,"[1]; strain KPN UFR216 (SHV-28, CTX-M-15), ATB alone",> 128 µg/mL
same,MIC,"[1]; strain KPN UFR216 (SHV-28, CTX-M-15), CLA @ 4 μg/ml+ ATB",≤ 0.25 µg/mL
same,MIC,"[1]; strain KPN UFR217 (TEM-1, SHV-1, CTX-M-15), ATB alone",> 128 µg/mL
same,MIC,"[1]; strain KPN UFR217 (TEM-1, SHV-1, CTX-M-15), CLA @ 4 μg/ml+ ATB",≤ 0.25 µg/mL
same,MIC,"[1]; strain KPN UFR219 (SHV-12, CTX-M-15), ATB alone",> 128 µg/mL
same,MIC,"[1]; strain KPN UFR219 (SHV-12, CTX-M-15), CLA @ 4 μg/ml+ ATB",0.5 µg/mL
same,MIC,"[1]; strain KPN UFR220 (TEM-1, SHV-12, DHA-1), ATB alone",> 128 µg/mL
same,MIC,"[1]; strain KPN UFR220 (TEM-1, SHV-12, DHA-1), CLA @ 4 μg/ml+ ATB",> 128 µg/mL
same,MIC,"[1]; strain KPN UFR221 (TEM-1, SHV-11, CTX-M-14, DHA-1), ATB alone",64 µg/mL
same,MIC,"[1]; strain KPN UFR221 (TEM-1, SHV-11, CTX-M-14, DHA-1), CLA @ 4 μg/ml+ ATB",128 µg/mL
same,MIC,"[1]; strain KPN UFR222 (DHA-2), ATB alone",> 128 µg/mL
same,MIC,"[1]; strain KPN UFR222 (DHA-2), CLA @ 4 μg/ml+ ATB",> 128 µg/mL
same,MIC,"[1]; strain KPN UFR227O (TEM-x, SHV-x, CTX-M-x), ATB alone",> 128 µg/mL
same,MIC,"[1]; strain KPN UFR227O (TEM-x, SHV-x, CTX-M-x), CLA @ 4 μg/ml+ ATB",> 128 µg/mL
same,AUC(0-inf),[2]; iv,37200 ng·h/mL
same,bioavailability,[2]; po,45%
